The source of these data is patent EP4279068A1, “COMPOSITION COMPRISING A COMBINATION OF CAPSAICIN AND/OR PHENYLCAPSAICIN AND ASTAXANTHIN FOR THE PREVENTION AND TREATMENT OF INFLAMMATORY-BASED SKIN DISEASES, IN PARTICULAR ASSOCIATED WITH SKIN AGING” (Safi Medical Care s.r.l., priority 2022, dated 2023).

One experiment has as its system HO-1. In words: HO-1 mRNA expression by quantitative real-time PCR in cultured human fibroblasts. Type of experiment: cell-based. The conditions noted are these: human immortalized ATCC fibroblasts, peak at 15 µM. How it is done: The human immortalized ATCC fibroblasts were exposed for 6 hrs to different concentrations of CAP, ASX, or of a combination of the two compounds (5, 10, 15, and 30 µM). […] ASX causes a dose-dependent increase in HO-1 mRNA, measured relative to the non-inducible HO-2 paralog gene, which peaks (approximately 6-fold) at 15 µM) and subsequently decreases to 30 µM. […] To confirm that the HO-1 gene expression measured at the mRNA level corresponded to an equivalent increase in the heme oxygenase activity, this activity was measured at the same doses of CAP and ASX 6 and 24 hours after administration. […] The results highlight the synergistic activity of CAP and ASX in the ability to activate HO-1 gene expression. In order to determine the best ratio between the two compounds we evaluated using the same experimental model, different proportion of the two compounds at the final concentration of 15 µM (CAP/ASX 1:2, 1:1, 2:1).
(In general: Quantitative PCR measures a nucleic acid by following its amplification.)

In the next experiment the test system is Nrf2. In words: Nrf2 protein expression in nuclear extracts by Western blot. Type of experiment: cell-based. As to conditions: cultured human fibroblasts, final concentration 15 µM, 1 hr up to 12 hrs, Figure 3. How it is done:
The cultured human fibroblasts were exposed to CAP, ASX or to a combination of the two compounds at the final concentration of 15 µM to evaluate the Nrf2 protein expression over time. […] The […] were washed twice with PBS 1X. The cells were then harvested in 1 ml of 1X PBS and centrifuged at 3000 rpm for 3 min at 4 °C. The cell pellet was carefully resuspended in […] of cold buffer containing 10 mM of HEPES (pH 7.9), 10 mM of KCl, 0.1 mM of EDTA, 0.1 mM of EGTA, 1 µM of DTT, and cocktail complete with protease inhibitors (Roche, Mannheim, Germany). The pellet was then incubated on ice for 15 min to allow the cells to swell. After this time, 15 µl of 10% NP-40 were added and the tube was mixed with vortex for 10 s. The homogenate was then centrifuged at 3000 rpm for 3 min at 4 °C and the nuclear pellet was resuspended in 30 µl of cold buffer consisting of 20 mM of HEPES (pH 7.9), 0.4 M of NaCl, 1 mM of EDTA, 1 mM of EGTA, 1 µM of DTT and protease inhibitors. The pellet was then incubated on ice for 15 min and vortexed for 10 - 15 s every 2 min. The nuclear extract was finally centrifuged at 13,000 rpm for 5 min at 4 °C. The supernatant containing the nuclear proteins was broken down by SDS-polyacrylamide gel and subjected to immunoblot analysis using anti-Nrf2 (1:500 dilution) and anti-Sp1 (1:500 dilution) antibodies.

The subject of another experiment is NF-kβ p65. Nature of the experiment: NF-kβ p65 DNA-binding activity, TransAM p65 ELISA kit, in LPS-stimulated macrophages. The experiment is classed as cell-based, rats. The conditions noted are these: 500 ng/ml LPS, 15 µm, 12 hours, Fig. 4. How it is done:
(§1) To evaluate the ability of the synergistic composition of the invention to inhibit the NF-kβ activity in macrophages of rats, we used the DNA-binding activity assay of NF-kβ p65 by ELISA kit for TransAM p65 transcription factor (Active Motif, Carlsbad, CA). The cells were stimulated with 500 ng/ml of LPS in the presence and absence of 15 µm of CAP, 15 µm of ASX or a 15 µm combination of CAP + ASX, for 12 hours, according to the invention. Then, the DNA-binding activity of NF-kβ p65 was determined. 12 hours thereafter LPS stimulation markedly promoted the DNA-binding activity of NF-kβ p65 and the expression of proinflammatory cytokines IL-1β, IL-6, and TNF-α. […] Consistently, similar effects were shown in terms of cytokine expression (Figure 5). An immortalized macrophage cell line was used. The cells were pretreated or not for 1 hr with 15 µm of CAP, 15 µm of ASX or 15 µm of CAP+ASX, and then exposed to 500 ng/ml of LPS for another 24 hrs. IL-1b, IL-6 and TNF-a were detected by ELISA kit purchased from Abcam, Cambridge, (MA) USA. The data are expressed as mean ±SEM, n = 4; *p < 0.001 vs. LPS, **p < 0.001 vs. CAP or ASX alone.

For another experiment, the system named is IL-1β, IL-6 and TNF-α. In words: Inflammatory cytokine secretion by ELISA in LPS-stimulated macrophages. Type of experiment: cell-based. The conditions noted are these: macrophages pretreated 1 hr with 15 µm, then 500 ng/ml LPS for 24 hrs, Figure 5. How it is done: as §1

As to `CC1=C(/C=C/C(C)=C/C=C/C(C)=C/C=C/C=C(C)/C=C/C=C(C)/C=C/C2=C(C)C(=O)C(O)CC2(C)C)C(C)(C)CC(O)C1=O` (stereo not drawn) [ASX, 3,3'-dihydroxy-β-carotene-4,4'-dion], the “increase in HO-1 mRNA, measured relative to the non-inducible HO-2 paralog gene” value in the experiment with HO-1 (6 hrs exposure) is “approximately 6 fold”. For the same molecule, in the experiment on Nrf2, the “Nrf2 protein expression in the nuclear extracts” value is on record as “significantly increased”. The “DNA-binding activity of NF-kβ p65” value with NF-kβ p65 is “lower DNA-binding activity”. For the same molecule, in the experiment with IL-1β, IL-6 and TNF-α, the “LPS-stimulated cytokine secretion (IL-1β, IL-6 and TNF-α)” value is “significantly reduced”.

Take `COc1cc(CNC(=O)CCCC/C=C/C(C)C)ccc1O` [CAP, (E)-N-(4-hydroxy-3-methoxybenzyl) -8-methylnon-6-enamide]: the “HO-1 gene expression (HO-1 mRNA), result in words” value in the experiment on HO-1 (6 hrs, 5, 10, 15 and 30 µM) is “slightly less active”. In addition, the “Nrf2 protein expression in the nuclear extracts” value with Nrf2 is “lower increase”. The “DNA-binding activity of NF-kβ p65” value in the experiment with NF-kβ p65 is listed as “lower DNA-binding activity”. Besides, the “LPS-stimulated cytokine secretion (IL-1β, IL-6 and TNF-α)” value in the experiment with IL-1β, IL-6 and TNF-α is listed as “significantly reduced”.
